Source: patent US6369294B1, “Methods comprising apoptosis inhibitors for the generation of transgenic pigs” (Texas A&M University System, priority 1996, dated 2002)
Several values for one entry are separate records, joined by “and”; a condition that tells them apart may be missing. Identical values can stand only once.

Key:
[1] = test system: PGCs; test: Effect of isolation procedure and α2-macroglobulin on PGCs developing into alkaline phosphatase positive colonies; assay type: cell-based, pig; details: α2-macroglobulin 1 μg/ml; for alkaline phosphatase positive colonies (replicates R1-R3): counted six days later
Experimental: Genital ridges from two day 25-27 pig fetuses were collected, divided into four groups (a 2×2 study), placed in PES media either with α2-macroglobulin at 1 μg/ml (2 groups) or without α2-macroglobulin (2 groups), and immediately either needle teased to allow colonies to seep out (2 groups) or macerated (2 groups) with the help of a syringe. Briefly, the ridges were broken into small pieces by pressing them against the bottom of a dish with the back of a syringe. The disrupted tissues were further broken up by passing them several times through a 20 gauge needle until all large tissue clumps had been disrupted. Following tissue disruption, samples were centrifuged for 3-5 minutes at 250×g to settle tissue fragments and supernatant containing mostly single cells collected and centrifuged at 1000×g for 5 min. The resulting pellet was resuspended in PES containing LIF, SCF, and bFGF with or without human α2-macroglobulin, cells counted, and plated in triplicate in feeder layers.
Six days later colonies were fixed, stained for alkaline phosphatase activity, and counted.

[2] = test system: cultured PGCs; test: Passage of cultured PGCs in presence or absence of α2-macroglobulin, alkaline phosphatase positive colonies; assay type: cell-based
From the text: The effect of α2-macroglobulin on the ability to passage cells was also studied. To test the ability of α2-macroglobulin to protect against the losses normally observed when cultured PGCs are trypsinized, cells were passaged twice in the presence or absence of α2-macroglobulin, the colonies fixed, stained for alkaline phosphatase and the number of alkaline phosphatase positive colonies determined. PGCs were collected in PES and plated on feeder layers in the presence or absence of media containing 1 μg/ml α2-macroglobulin. Colonies were allowed to grow for 7 days, trypsinized as described above and plated again in media with or without α2-macroglobulin. Samples were done in duplicate and corrected for the number of added cells.

[3] = test system: bovine PGC's; test: Third passage bovine PGC colonies with or without α2-macroglobulin (preliminary study); assay type: cell-based
From the text: The ability of colonies cultured and passaged in the presence or absence of α2-macroglobulin to survive in an undifferentiated state for multiple passages is currently being studied. In a preliminary study twice as many colonies were obtained from third passage bovine PGC's (22 versus 45) cultured in media with α2-macroglobulin than in media without the protease inhibitor. Moreover, the colonies appear on average 2-3 days earlier and are of larger size when cultured in the presence of α2-macroglobulin.

[4] = test system: PGC; test: Optimal concentration of α2-macroglobulin: ratio of AP positive colonies to control samples; assay type: cell-based; details: for ratio of AP positive colonies compared to control samples: three trials
Experimental: An additional study was performed to determine the optimal concentration of α2-macroglobulin. The ratio of AP positive colonies in samples containing either 1 μg/ml or 0.5 μg/ml as compared to control samples was determined for three trials. The ratios at 1 μg/ml were 0.81±0.37, 0.84±0.23 and 0.83±0.27, while at 0.5 μg/ml they were 1.98±0.36, 1.43±0.27 and 1.70±0.41.

[5] = test system: porcine primordial germ cells; test: Isolation of porcine primordial germ cells with bFGF; assay type: cell-based
Experimental: (§1) STO feeder cells were plated in PES media alone for 48 hours or in PES media containing 40 ng/ml bFGF for the same period of time. […] It is not presently known whether bFGF is acting directly on the proliferation rate of the PGCs or whether the effect is through a change in the physiology of the STO cells which then effects the PGCs.
Thirdly, when low density feeders are used to culture porcine PGCs, very few colonies grow and the few that do grow are always in direct contact with the feeder cells. No colonies grow on the plastic, even if surrounded by STO cells. Thus it is unlikely that the STO's are producing a soluble factor. Additionally, to isolate porcine PGC-derived cells, it is an absolute requirement that bFGF be added to the feeders. The bFGF drastically changes the morphology of the feeder cells. Thus the bFGF may be acting on the feeder to promote/inhibit production of a matrix component versus acting directly on the PGC cells. Also, very few colonies are obtained when plating porcine PGCs on feeders made within 6 hours. However, feeders made 24 hours prior to plating yield much better results. Thus this period of time may be required for synthesis and secretion of some matrix component.

[6] = test system: STO feeder cells; test: STO feeder cells plated with or without bFGF, morphology; assay type: cell-based, mouse; details: PES media containing 40 ng/ml bFGF for 48 hours
Experimental: as §1

[7] = test system: porcine ICM (pICM); test: In vitro differentiation assay of cultured porcine inner cell mass, graded 1 to 5; assay type: cell-based; details: for differentiation score on day two, study 2: scale 1 (fully undifferentiated) to 5 (fully differentiated), p<0.05
From the text: The inventors have developed a grading system to detect changes in the differentiation status of in vitro cultured PGC cells or the pICM. In the first study porcine ICMs (day 7) were isolated by immunosurgery and cultured 4 days in DMEM-based medium (D medium) or DMEM/Hams F-10 (1:1)-based medium (D/H medium) with or without human leukemia inhibitory factor (hLIF; 1000 μ/ml). For the second study pICMs were collected as above and cultured 4 days in one of six treatments: control medium, human leukemia inhibitory factor (hLIF; 1000 μ/ml), human interleukin-6 (hIL-6; 100 ng/ml), hIL-6+hIL-6 soluble receptor (hIL6+sR; 100 ng/ml+2.5 μg/ml), human oncostatin M (hOSM; 100 ng/ml), or rat ciliary neurotrophic factor (rCNTF; 100 ng/ml). All cytokines were prepared in Dulbecco's Modified Eagles Medium/Hams F-10 (1:1)-based medium. The colonies were photographed daily for morphological analysis.
pICMs were categorized into one of two types based on their morphological profile: type A, non-epithelial or type B, epithelial-like. The pICM differentiation was evaluated using standardized differentiation profiles. Each pICM series was graded on a scale of 1 (fully undifferentiated) to 5 (fully differentiated) for each time point. Differentiation was verified by alkaline phosphatase activity, cytokeratin staining, and scanning electron microscopy. […] Furthermore, addition of rCNTF gave the lowest overall mean differentiation score (2.53±0.15). […] The grading system employed was thus an effective tool for detecting treatment effects on differentiation of the developing pICM.

[8] = test system: PGC; test: Addition of uteroferrin or uteroferrin rose to PGC culture media; assay type: cell-based
Experimental: The pellet, containing PGCs, was resuspended in PES media Following collection, the cells were rinsed 3 times by centrifugation and resuspended in PEG medium containing soluble recombinant human stem cells factor at 30 ng/ml, human basic fibroblast growth factor at 40 ng/ml, and LIF at 20 ng/ml and plated onto STO feeder layers. Additionally, the effect of the addition of 100 ng/ml of uteroferrin in the presence or absence of stem cell factor on the number of alkaline phosphatase positive colonies was determined.
In order to determine the beneficial effect provided by the serpin alone, a broad range protease inhibitor called α2-macroglobulin was studied (Feige et al., 1996).

[9] = rCNTF 100 ng/ml, hLIF 1000 μ/ml

“α2-macroglobulin: broad range protease inhibitor; apoptosis inhibitor added to PGC culture media at 1 μg/ml” was tested, and the Normalized value ([1]; pig 1, macerate) was 16395 colonies per million cells, the “alkaline phosphatase positive colonies (replicates R1-R3)” value (“alkaline phosphatase positive colonies” below) ([1]; pig 1, macerate) was 4712 and 5176 and 4368 and the Normalized value ([1]; pig 1, teasing) was 18087 colonies per million cells. The “alkaline phosphatase positive colonies” value ([1]; pig 1, teasing) was 4688 and 4960 and 5424, the Normalized value ([1]; pig 2, macerate) was 35865 colonies per million cells and the “alkaline phosphatase positive colonies” value ([1]; pig 2, macerate) was 8312 and 7872 and 8896. For the same molecule, the Normalized value ([1]; pig 2, teasing) was 37380 colonies per million cells, the “alkaline phosphatase positive colonies” value ([1]; pig 2, teasing) was 6200 and 6008 and 6864 and the “Normalized value” ([2]; 1st passage +, 2nd passage +) was 2052 colonies per 1000 colonies plated. The “Normalized value” ([2]; 1st passage +, 2nd passage −) was 1512 colonies per 1000 colonies plated, the “Normalized value” ([2]; 1st passage −, 2nd passage +) was 1422 colonies per 1000 colonies plated and the “Normalized value” ([2]; first passage, media with 1 μg/ml α2-macroglobulin) was 22028 colonies per million cells. The “number of colonies from third passage bovine PGC's” value ([3]; media with α2-macroglobulin, 22 without) was 45, the “colonies appear earlier than without α2-macroglobulin” value ([3]; on average) was 2 to 3 days and the “factor by which the lower dose is more effective in generating AP positive colonies” value ([4]; 0.5 μg/ml versus 1 μg/ml) was about 2. For the same molecule, the “ratio of AP positive colonies compared to control samples” value ([4]; α2-macroglobulin 0.5 μg/ml) was 1.98±0.36 and 1.43±0.27 and 1.70±0.41 and the “ratio of AP positive colonies compared to control samples” value ([4]; α2-macroglobulin 1 μg/ml) was 0.81±0.37 and 0.84±0.23 and 0.83±0.27.

For bFGF: basic fibroblast growth factor, the “requirement for the isolation of porcine primordial germ cells” value [5] was “essential component for the isolation of porcine primordial germ cells” and the “change in morphology of the feeder cells” value [6] was “drastic change is seen in the morphology of the feeder cells”.

With hLIF: human leukemia inhibitory factor the “delay of differentiation of the developing pICM, study 1” value ([7]; hLIF 1000 μ/ml, D or D/H medium, 4 days, p=0.08) was “neither hLIF nor culture medium delayed differentiation” and the “differentiation score on day two, study 2” value [7, 9] was 2.70±0.16.

B1: uteroferrin: purple colored, progesterone-induced iron-containing glycoprotein secreted by uterine endometrial epithelium of pigs (protein, UniProt P09889 21-340, looked up)
Tartrate-resistant acid …: GTRTNTRTAPTPILRFVAVGDWGGVPNAPFHTAREMANAKAIATTVKTLGADFILSLGDNFYFTGVHDAKDKRFQETFEDVFSDPSLRNVPWHVLAGNHDHLGNVSAQIAYSKISKRWNFPSPYYRLRFKIPRSNVSVAIFMLDTVTLCGNSDDFVSQQPERPRNLALARTQLAWIKKQLAAAKEDYVLVAGHYPVWSIAEHGPTHCLVKQLLPLLTTHKVTAYLCGHDHNLQYLQDENGLGFVLSGAGNFMDPSKKHLRKVPNGYLRFHFGAENSLGGFAYVEITPKEMSVTYIEASGKSLFKTKLPRRARSEHQHRRA
B1 was tested, and the “effect on the number of resulting PGC colonies” value [8] was “some improvement”.

B2: rCNTF: rat ciliary neurotrophic factor (protein, UniProt P20294 1-200, looked up)
Ciliary neurotrophic factor: MAFAEQTPLTLHRRDLCSRSIWLARKIRSDLTALMESYVKHQGLNKNINLDSVDGVPVASTDRWSEMTEAERLQENLQAYRTFQGMLTKLLEDQRVHFTPTEGDFHQAIHTLMLQVSAFAYQLEELMVLLEQKIPENEADGMPATVGDGGLFEKKLWGLKVLQELSQWTVRSIHDLRVISSHQMGISALESHYGAKDKQM
For B2, the “differentiation score on day two, study 2” value [7, 9] was 2.07±0.15 and the “overall mean differentiation score, study 2” value ([7]; scale 1 to 5, 4 day culture, rCNTF 100 ng/ml) was 2.53±0.15.
